Some test systems named below: A498; COLO 205; HCT-15; HL-60; HOP-92; HT-29; K562; MDA-MB-231; MDA-N; MOLT-4; NCI-H226; NCI-H23; NCI-H460; OVCAR-3; OVCAR-4; OVCAR-5; RXF 393; SF-295; SK-MEL-2; TK-10.
What all share (assay): NCI tumour cell line growth inhibition, 48 h

Data on one compound can be found in ChEMBL document CHEMBL1201862, “PubChem BioAssay data set” (2004).

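Interpolation was linear, between the two tested concentrations surrounding the appropriate level; five concentrations were tested over 48 hours in 96-well plates. GI50: concentration for 50% inhibition of growth.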 The source made the active and inactive calls. Cut-off read from the data, not from the text of the source: active = GI50 up to about 1.1 µM and inactive = higher.

On to `CC1=NN(c2cccc(Cl)c2)C2(C1)SCC(=O)N2c1nc2ccccc2s1` (stereo not given), for which the GI50 with A498 is 27.9 µM (inactive); with COLO 205 it was 18.1 µM (inactive); in the assay on HCT-15, 33.2 µM; with HL-60, 22.2 µM (inactive); in the assay with HOP-92, 32.8 µM (inactive); with HT-29, 27.1 µM (inactive). The GI50 was 18.2 µM (inactive) in the assay on K562; 19.1 µM (inactive) with MDA-MB-231; 33 µM (inactive) with MDA-N; 16.1 µM (inactive) in the assay on MOLT-4; 11.6 µM (inactive) in the assay on NCI-H226; 29.2 µM (inactive) in the assay with NCI-H23. In addition, the GI50 is 21.6 µM (inactive) in the assay with NCI-H460; 16.2 µM (inactive) in the assay with OVCAR-3; 34 µM (inactive) in the assay on OVCAR-4; 37 µM (inactive) with OVCAR-5; 17.7 µM (inactive) in the assay with RXF 393; 23.2 µM (inactive) in the assay on SF-295. Moreover, the values for the GI50 with SK-MEL-2 and in the assay on TK-10 were 22.3 µM (inactive) and 30.2 µM (inactive), respectively.
